SMILES strings stand for the structures.

The series is described as follows: Solubility in water, visual, confirmed by HPLC assay of a saturated solution. Format: physicochemical. The following applies: thermodynamic from solid. The method, then: Solubility of the Nitrate
The visual solubility was confirmed by an HPLC assay of a saturated solution. Solubility: 6 mg/ml.

One may read the solubility as how much of the substance goes into solution per volume. A low value points to little dissolved substance. Compound `CN(CCOc1ccc(CC2SC(=O)NC2=O)cc1)c1ccccn1.O=[N+]([O-])O` (stereo not shown) [Nitrate, 5-[4-[2-(N-methyl-N-(2-pyridyl)amino)ethoxy]benzyl]thiazolidine-2,4-dione nitrate] yielded a solubility of 6000 µg/mL.

Values taken from patent US20040029926A1 (priority 2000, published 2004).
